Reference: US9840513B2 (AbbVie S.à.r.l., priority 2015, dated 2017)

Molecular target: T1, F508delCFTR cell surface expression in CFBE41o-F508delCFTR-HRP cells (Homo sapiens, UniProt P13569, DEL508-508)
T1 construct: fused on or other part: Horseradish peroxidase (HRP) reporter inserted in the fourth exofacial (extracellular) loop of CFTR; expression is doxycycline-inducible
Test: Cell Surface Expression-Horse Radish Peroxidase (CSE-HRP) Assay
Type: cell-based
Settings: for EC50: CFBE41o-F508delCFTR-HRP cells, 18-24 hours at 33° C., 8-point curve, highest concentration 20 μM; for Maximum % activity (%): maximum at any tested concentration, normalized to on-plate positive control (3 μM)
Method in brief: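 CFBE41o- cells with HRP-tagged F508delCFTR, expression induced by 0.5 μg/mL doxycycline for 72 h at 37 °C, then compound for 18-24 h at 33 °C (8-point, 3-fold, top 20 μM). Surface HRP measured by luminol luminescence; % activity normalised to 3 μM positive-control corrector; EC50 from variable-slope sigmoidal fit, three replicate plates.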

T1 sequence (P13569 with tags, fused parts or gaps DEL508-508 limits assumed): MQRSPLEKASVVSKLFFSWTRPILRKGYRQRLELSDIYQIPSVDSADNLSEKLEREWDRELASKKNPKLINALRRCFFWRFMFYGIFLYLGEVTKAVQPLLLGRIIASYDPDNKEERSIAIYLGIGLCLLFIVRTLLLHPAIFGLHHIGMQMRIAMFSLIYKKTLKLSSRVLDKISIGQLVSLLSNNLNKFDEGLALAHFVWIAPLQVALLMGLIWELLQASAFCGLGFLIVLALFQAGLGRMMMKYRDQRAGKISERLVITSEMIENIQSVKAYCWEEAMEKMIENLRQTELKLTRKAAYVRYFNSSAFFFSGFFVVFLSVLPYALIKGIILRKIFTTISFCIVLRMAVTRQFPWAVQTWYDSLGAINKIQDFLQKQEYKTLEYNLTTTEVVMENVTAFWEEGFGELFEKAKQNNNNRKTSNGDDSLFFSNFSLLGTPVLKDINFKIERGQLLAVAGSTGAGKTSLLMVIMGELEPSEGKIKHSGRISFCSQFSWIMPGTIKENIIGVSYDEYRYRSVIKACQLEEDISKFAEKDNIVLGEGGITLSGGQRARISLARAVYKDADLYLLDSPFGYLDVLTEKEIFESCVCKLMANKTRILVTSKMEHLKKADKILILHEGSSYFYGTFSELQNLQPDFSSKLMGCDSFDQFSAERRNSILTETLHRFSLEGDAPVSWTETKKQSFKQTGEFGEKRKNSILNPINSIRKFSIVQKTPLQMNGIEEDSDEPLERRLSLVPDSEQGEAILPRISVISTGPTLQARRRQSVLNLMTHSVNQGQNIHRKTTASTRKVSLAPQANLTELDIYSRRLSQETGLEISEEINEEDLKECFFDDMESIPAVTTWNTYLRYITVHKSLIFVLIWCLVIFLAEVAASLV
T1 sequence (P13569 919-1480 limits assumed, stated change not applied): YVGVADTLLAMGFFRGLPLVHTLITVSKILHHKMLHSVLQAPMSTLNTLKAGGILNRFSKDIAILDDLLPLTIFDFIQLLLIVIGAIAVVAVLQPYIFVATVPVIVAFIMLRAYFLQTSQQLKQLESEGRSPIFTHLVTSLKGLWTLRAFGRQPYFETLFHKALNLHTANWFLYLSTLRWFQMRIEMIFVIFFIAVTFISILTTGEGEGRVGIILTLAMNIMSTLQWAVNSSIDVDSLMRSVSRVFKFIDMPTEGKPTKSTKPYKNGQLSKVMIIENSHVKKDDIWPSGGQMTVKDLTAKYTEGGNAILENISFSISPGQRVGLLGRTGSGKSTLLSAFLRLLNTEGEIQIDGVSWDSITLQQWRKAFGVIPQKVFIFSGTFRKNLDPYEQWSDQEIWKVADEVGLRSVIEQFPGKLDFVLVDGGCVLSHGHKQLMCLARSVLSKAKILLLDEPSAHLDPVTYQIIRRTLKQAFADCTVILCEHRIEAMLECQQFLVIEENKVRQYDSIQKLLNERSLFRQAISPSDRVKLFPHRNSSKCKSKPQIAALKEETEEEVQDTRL

Compound	EC50	Maximum % activity (%)
Cc1ccc(NC(=O)[C@@]2(C)COc3cc4c(cc32)OC(F)(F)O4)nc1-c1cccc(C(O)CO)c1 (stereo partly drawn) [Example 126, (7R)—N-{6-[3-(1,2-dihydroxyethyl)phenyl]-5-methylpyridin-2-yl}-2,2-difluoro-7-methyl-6,7-dihydro-2H-furo[2,3-f][1,3]benzodioxole-7-carboxamide]	620 nM	140%
C[C@]1(C(=O)Nc2cccc(-c3cc(C(=O)O)ccc3F)n2)COc2cc3c(cc21)OC(F)(F)O3 [Example 128, 3-(6-{[(7R)-2,2-difluoro-7-methyl-6,7-dihydro-2H-furo[2,3-f][1,3]benzodioxole-7-carbonyl]amino}pyridin-2-yl)-4-fluorobenzoic acid]	4960 nM	172%
Cc1ccc(C(=O)O)cc1-c1cccc(NC(=O)[C@@]2(C)COc3cc4c(cc32)OC(F)(F)O4)n1 [Example 129, 3-(6-{[(7R)-2,2-difluoro-7-methyl-6,7-dihydro-2H-furo[2,3-f][1,3]benzodioxole-7-carbonyl]amino}pyridin-2-yl)-4-methylbenzoic acid]	2260 nM	129%
CC(C)(C)c1cc2cc(NC(=O)[C@@]3(C)COc4cc5c(cc43)OC(F)(F)O5)ccc2[nH]1 [Example 131, (7R)—N-(2-tert-butyl-1H-indol-5-yl)-2,2-difluoro-7-methyl-6,7-dihydro-2H-furo[2,3-f][1,3]benzodioxole-7-carboxamide]	1310 nM	173%
CC(C)(C)c1cc2cc(NC(=O)[C@@]3(C)COc4cc5c(cc43)OC(F)(F)O5)c(F)cc2n1C[C@@H](O)COCc1ccccc1 [Example 132, (7R)—N-{1-[(2R)-3-(benzyloxy)-2-hydroxypropyl]-2-tert-butyl-6-fluoro-1H-indol-5-yl}-2,2-difluoro-7-methyl-6,7-dihydro-2H-furo[2,3-f][1,3]benzodioxole-7-carboxamide]	330 nM	138%
CC(C)(C)c1cc2cc(NC(=O)[C@@]3(C)COc4cc5c(cc43)OC(F)(F)O5)c(F)cc2n1C[C@@H](O)CO [Example 133, (7R)—N-{2-tert-butyl-1-[(2R)-2,3-dihydroxypropyl]-6-fluoro-1H-indol-5-yl}-2,2-difluoro-7-methyl-6,7-dihydro-2H-furo[2,3-f][1,3]benzodioxole-7-carboxamide]	300 nM	132%
CC(C)(CO)c1cc2cc(NC(=O)[C@]3(C)COc4cc5c(cc43)OC(F)(F)O5)c(F)cc2n1C[C@@H](O)CO [Example 138, (7S)—N-{1-[(2R)-2,3-dihydroxypropyl]-6-fluoro-2-(1-hydroxy-2-methylpropan-2-yl)-1H-indol-5-yl}-2,2-difluoro-7-methyl-6,7-dihydro-2H-furo[2,3-f][1,3]benzodioxole-7-carboxamide]	7650 nM	23%
Cc1ccc(NC(=O)[C@@]2(C)COc3cc4c(cc32)OC(F)(F)O4)nc1-c1ccc(C(=O)NS(C)(=O)=O)cc1 [Example 142, (7R)-2,2-difluoro-N-(6-{4-[(methanesulfonyl)carbamoyl]phenyl}-5-methylpyridin-2-yl)-7-methyl-6,7-dihydro-2H-furo[2,3-f][1,3]benzodioxole-7-carboxamide]	2500 nM	180%
CC(C)(CO)c1cc2cc(NC(=O)[C@@]3(C)COc4cc5c(cc43)OC(F)(F)O5)c(F)cc2[nH]1 [Example 143, (7R)-2,2-difluoro-N-[6-fluoro-2-(1-hydroxy-2-methylpropan-2-yl)-1H-indol-5-yl]-7-methyl-6,7-dihydro-2H-furo[2,3-f][1,3]benzodioxole-7-carboxamide]	490 nM	129%

Continued, values first:

EC50	Maximum % activity (%)	Compound
460 nM	140%	Cc1ccc(NC(=O)[C@@]2(C)COc3cc4c(cc32)OC(F)(F)O4)nc1-c1cc(C(=O)O)cs1 [Example 127, 5-(6-{[(7R)-2,2-difluoro-7-methyl-6,7-dihydro-2H-furo[2,3-f][1,3]benzodioxole-7-carbonyl]amino}-3-methylpyridin-2-yl)thiophene-3-carboxylic acid]
20 nM	158%	C[C@]1(C(=O)N[C@@H]2C[C@H](c3ccc(C(=O)O)cc3)Oc3cc(OC(F)F)ccc32)COc2cc3c(cc21)OC(F)(F)O3 [Example 139, 4-[(2R,4R)-7-(difluoromethoxy)-4-{[(7R)-2,2-difluoro-7-methyl-6,7-dihydro-2H-furo[2,3-f][1,3]benzodioxole-7-carbonyl]amino}-3,4-dihydro-2H-1-benzopyran-2-yl]benzoic acid]
2240 nM	79%	CCOC(=O)[C@H]1CC[C@H]([C@@H]2C[C@H](NC(=O)[C@@]3(C)COc4cc5c(cc43)OC(F)(F)O5)c3ccc(OC(F)(F)F)cc3O2)CC1 [Example 147, ethyl trans-4-[(2S,4S)-4-{[(7R)-2,2-difluoro-7-methyl-6,7-dihydro-2H-furo[2,3-f][1,3]benzodioxole-7-carbonyl]amino}-7-(trifluoromethoxy)-3,4-dihydro-2H-1-benzopyran-2-yl]cyclohexane-1-carboxylate]
41 nM	145%	CCOC(=O)[C@H]1CC[C@H]([C@H]2C[C@@H](NC(=O)[C@@]3(C)COc4cc5c(cc43)OC(F)(F)O5)c3ccc(OC(F)(F)F)cc3O2)CC1 [Example 148, ethyl trans-4-[(2R,4R)-4-{[(7R)-2,2-difluoro-7-methyl-6,7-dihydro-2H-furo[2,3-f][1,3]benzodioxole-7-carbonyl]amino}-7-(trifluoromethoxy)-3,4-dihydro-2H-1-benzopyran-2-yl]cyclohexane-1-carboxylate]
806 nM	102%	CCOC(=O)[C@H]1CC[C@H]([C@@H]2C[C@H](NC(=O)[C@@]3(C)COc4cc5c(cc43)OC(F)(F)O5)c3ccc(OC)cc3O2)CC1 [Example 152, ethyl trans-4-[(2S,4S)-4-{[(7R)-2,2-difluoro-7-methyl-6,7-dihydro-2H-furo[2,3-f][1,3]benzodioxole-7-carbonyl]amino}-7-methoxy-3,4-dihydro-2H-1-benzopyran-2-yl]cyclohexane-1-carboxylate]
304 nM	135%	CCOC(=O)[C@H]1CC[C@H]([C@H]2C[C@@H](NC(=O)[C@@]3(C)COc4cc5c(cc43)OC(F)(F)O5)c3ccc(OC)cc3O2)CC1 [Example 153, ethyl trans-4-[(2R,4R)-4-{[(7R)-2,2-difluoro-7-methyl-6,7-dihydro-2H-furo[2,3-f][1,3]benzodioxole-7-carbonyl]amino}-7-methoxy-3,4-dihydro-2H-1-benzopyran-2-yl]cyclohexane-1-carboxylate]
915 nM	103%	COc1ccc2c(c1)O[C@H]([C@H]1CC[C@H](C(=O)O)CC1)C[C@@H]2NC(=O)[C@@]1(C)COc2cc3c(cc21)OC(F)(F)O3 [Example 154, trans-4-[(2S,4S)-4-{[(7R)-2,2-difluoro-7-methyl-6,7-dihydro-2H-furo[2,3-f][1,3]benzodioxole-7-carbonyl]amino}-7-methoxy-3,4-dihydro-2H-1-benzopyran-2-yl]cyclohexane-1-carboxylic acid]
90 nM	142%	CCOC(=O)[C@H]1CC[C@H]([C@H]2C[C@@H](NC(=O)[C@@]3(C)COc4cc5c(cc43)OC(F)(F)O5)c3ccc(OC(F)F)cc3O2)CC1 [Example 156, ethyl trans-4-[(2R,4R)-7-(difluoromethoxy)-4-{[(7R)-2,2-difluoro-7-methyl-6,7-dihydro-2H-furo[2,3-f][1,3]benzodioxole-7-carbonyl]amino}-3,4-dihydro-2H-1-benzopyran-2-yl]cyclohexane-1-carboxylate]
168 nM	117%	CCOC(=O)[C@H]1CC[C@@H]([C@H]2C[C@@H](NC(=O)[C@@]3(C)COc4cc5c(cc43)OC(F)(F)O5)c3ccc(OC(F)(F)F)cc3O2)CC1 [Example 157, ethyl cis-4-[(2R,4R)-4-{[(7R)-2,2-difluoro-7-methyl-6,7-dihydro-2H-furo[2,3-f][1,3]benzodioxole-7-carbonyl]amino}-7-(trifluoromethoxy)-3,4-dihydro-2H-1-benzopyran-2-yl]cyclohexane-1-carboxylate]
3670 nM	111%	CCOC(=O)[C@H]1CC[C@@H]([C@@H]2C[C@H](NC(=O)[C@@]3(C)COc4cc5c(cc43)OC(F)(F)O5)c3ccc(OC(F)(F)F)cc3O2)CC1 [Example 158, ethyl cis-4-[(2S,4S)-4-{[(7R)-2,2-difluoro-7-methyl-6,7-dihydro-2H-furo[2,3-f][1,3]benzodioxole-7-carbonyl]amino}-7-(trifluoromethoxy)-3,4-dihydro-2H-1-benzopyran-2-yl]cyclohexane-1-carboxylate]
1020 nM	82%	CCOC(=O)[C@H]1CC[C@H]([C@@H]2C[C@H](NC(=O)[C@@]3(C)COc4cc5c(cc43)OC(F)(F)O5)c3ccc(OC(F)F)cc3O2)CC1 [Example 159, ethyl trans-4-[(2S,4S)-7-(difluoromethoxy)-4-{[(7R)-2,2-difluoro-7-methyl-6,7-dihydro-2H-furo[2,3-f][1,3]benzodioxole-7-carbonyl]amino}-3,4-dihydro-2H-1-benzopyran-2-yl]cyclohexane-1-carboxylate]
5090 nM	101%	C[C@]1(C(=O)N[C@H]2C[C@@H]([C@H]3CC[C@@H](C(=O)O)CC3)Oc3cc(OC(F)(F)F)ccc32)COc2cc3c(cc21)OC(F)(F)O3 [Example 161, cis-4-[(2S,4S)-4-{[(7R)-2,2-difluoro-7-methyl-6,7-dihydro-2H-furo[2,3-f][1,3]benzodioxole-7-carbonyl]amino}-7-(trifluoromethoxy)-3,4-dihydro-2H-1-benzopyran-2-yl]cyclohexane-1-carboxylic acid]
